Patent US11634396B2 (priority 2021, dated 2023)

target: human mOR (Homo sapiens (Human), UniProt P35372); test: cell-based; details: not given
Protocol: CHO Tag-lite human mOR stable cell line from Cisbio (NCBI accession number: NM_000914.3, Bedford, Mass.) were seeded and grown to approximately 80% confluence in Ham F-12 with 10% FBS, 50 U/ml penicillin, 50 μg/ml streptomycin, 2 mM Hepes, and 1 mg/ml geneticin (Invitrogen, Carlsbad, Calif.). Cells were then harvested using accutase (Corning. Coming, N.Y.), centrifuged at 1300 RPM for 5 min, and plated at 5000 cells per 5 μL per well in a 5× dilution of stimulation buffer consisting of the HTRF cAMP Gi kit, water and IBMX at 0.5 mM (Cisbio, Bedford, Mass.) in white HTRF low volume 384 well plates (Cisbio, Bedford, Mass.). Plates were then incubated at 37° C. in 5% CO2 for 10 minutes. For the agonist assay, forskolin was added to a final concentration of 4 μM. […] Test compounds were dissolved in DMSO and water, and then serially diluted to working concentrations such that the concentration of DMSO was less than 0.1%. Diluted test compounds were added at 2.5 μL per well, and plates were incubated at 37° C., and 5% CO2 for 15 minutes, and then at room temperature for 15 minutes. Next 5 μl/well of cAMP Eu-cryptate and 5 μl/well of anti-cAMP-d2 (both diluted 1:20 in lysis buffer) were added, and plates were incubated at room temperature for 1 hour. Following incubation, plates were read in a Synergy Neo2 multi-mode reader (Biotek, Winooski, Vt.). […] For the agonist assay, data was normalized using the maximal DAMGO response. Measurements were performed in triplicate and the dose response was fit using nonlinear regression.

Chain of human mOR (P35372 whole entry): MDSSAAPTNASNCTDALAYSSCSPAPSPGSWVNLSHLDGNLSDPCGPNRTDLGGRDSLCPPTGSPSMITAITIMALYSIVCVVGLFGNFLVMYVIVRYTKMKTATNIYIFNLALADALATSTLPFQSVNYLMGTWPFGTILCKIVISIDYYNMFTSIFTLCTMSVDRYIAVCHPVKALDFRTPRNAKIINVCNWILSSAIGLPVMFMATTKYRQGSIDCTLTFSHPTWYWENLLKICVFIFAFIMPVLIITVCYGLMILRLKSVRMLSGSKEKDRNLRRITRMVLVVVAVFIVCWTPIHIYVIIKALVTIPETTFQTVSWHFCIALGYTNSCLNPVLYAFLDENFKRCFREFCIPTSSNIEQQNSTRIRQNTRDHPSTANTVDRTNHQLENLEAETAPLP

Row | Structure (SMILES) | IC50 [nM]
1 | CN(C)[C@H](CNC(=O)CC(c1ccncc1)C1(C(F)(F)F)CC1)Cc1ccc(C(N)=O)cc1Cl (stereo partly drawn) [Compound 26, 3-chloro-4-[(2S)-2-(dimethylamino)-3-[3-(pyridin-4-yl)-3-[1-(trifluoromethyl)cyclopropyl]propanamido]propyl]benzamide] | < 300
2 | CN(C)[C@H](CNC(=O)CC(c1ncccn1)C1(C(F)(F)F)CC1)Cc1ccc(C(N)=O)cc1Cl (stereo partly drawn) [Compound 27, 3-chloro-4-((2S)-2-(dimethylamino)-3-(3-(pyrimidin-2-yl)-3-(1-(trifluoromethyl)cyclopropyl)propanamido)propyl)benzamide] | < 300
3 | CN(C)c1ncc(C(CC(=O)NC[C@H](Cc2ccc(C(N)=O)cc2Cl)N(C)C)C2(C(F)(F)F)CC2)cn1 (stereo partly drawn) [Compound 29, 3-chloro-4-[(2S)-2-(dimethylamino)-3-{3-[2-(dimethylamino)pyrimidin-5-yl]-3-[1-(trifluoromethyl)cyclopropyl]propanamido}propyl]benzamide] | < 300
4 | CN(C)[C@H](CNC(=O)CC(c1cncnc1)C1(C(F)(F)F)CC1)Cc1ccc(C(N)=O)cc1Cl (stereo partly drawn) [Compound 30, 3-chloro-4-[(2S)-2-(dimethylamino)-3-[3-(pyrimidin-5-yl)-3-[1-(trifluoromethyl)cyclopropyl]propanamido]propyl]benzamide] | < 300
5 | CN(C)[C@H](CNC(=O)CC(c1ncc(Cl)cn1)C1(C(F)(F)F)CC1)Cc1ccc(C(N)=O)cc1Cl (stereo partly drawn) [Compound 31, 3-chloro-4-[(2S)-3-[3-(5-chloropyrimidin-2-yl)-3-[1-(trifluoromethyl)cyclopropyl]propanamido]-2-(dimethylamino)propyl]benzamide] | < 300
6 | Cc1ncc([C@@H](CC(=O)NC[C@H](Cc2ccc(C(N)=O)c(F)c2C)N(C)C)C2CC2)cn1 [Compound 42, 4-((S)-3-((S)-3-cyclopropyl-3-(2-methylpyrimidin-S-yl)propanamido)-2-(dimethylamino)propyl)-2-fluoro-3-methylbenzamide] | > 3000
7 | Cc1ncc([C@@H](CC(=O)NC[C@H](Cc2ccc(C(N)=O)c(F)c2C)N(C)C)C2(C(F)(F)F)CC2)s1 [Compound 43, 4-((S)-2-(dimethylamino)-3-((S)-3-(2-methylthiazol-5-yl)-3-(1-(trifluoromethyl)cyclopropyl)propanamido)propyl)-2-fluoro-3-methylbenzamide] | < 300
8 | Cc1ncc([C@@H](CC(=O)NC[C@H](Cc2ccc(C(N)=O)c(F)c2C)N(C)C)C2(C(F)(F)F)CC2)cn1 [Compound 44, 4-((S)-2-(dimethylamino)-3-((R)-3-(2-methylpyrimidin-5-yl)-3-(1-(trifluoromethyl)cyclopropyl)propanamido)propyl)-2-fluoro-3-methylbenzamide] | < 300
9 | Cc1c(C[C@@H](CNC(=O)C[C@@H](c2cncc(F)c2)C(C)(C)C)N(C)C)ccc(C(N)=O)c1F [Compound 45, 4-((S)-2-(dimethylamino)-3-((R)-3-(5-fluoropyridin-3-yl)-4,4-dimethylpentanamido)propyl)-2-fluoro-3-methylbenzamide] | < 300
10 | Cc1ccc([C@@H](CC(=O)NC[C@H](Cc2ccc(C(N)=O)c(F)c2C)N(C)C)C2(C(F)(F)F)CC2)cn1 [Compound 46, 4-((S)-2-(dimethylamino)-3-((R)-3-(6-methylpyridin-3-yl)-3-(1-(trifluoromethyl)cyclopropyl)propanamido)propyl)-2-fluoro-3-methylbenzamide] | < 300
11 | Cc1ccc([C@@H](CC(=O)NC[C@H](Cc2cc(F)c(C(N)=O)c(F)c2)N(C)C)C2(C(F)(F)F)CC2)cn1 [Compound 47, 4-((S)-2-(dimethylamino)-3-((R)-3-(6-methylpyridin-3-yl)-3-(1-(trifluoromethyl)cyclopropyl)propanamido)propyl)-26-difluorobenzamide] | < 300
12 | Cc1ncc([C@@H](CC(=O)NC[C@H](Cc2cc(F)c(C(N)=O)c(F)c2)N(C)C)C2(C(F)(F)F)CC2)cn1 [Compound 48, 4-((S)-2-(dimethylamino)-3-((R)-3-(2-methylpyrimidin-5-yl)-3-(1-(trifluoromethyl)cyclopropyl)propanamido)propyl)-2,6-difluorobenzamide] | > 3000
13 | CN(C)[C@H](CNC(=O)CC(c1cccnc1)C1(C(F)(F)F)CC1)Cc1cc(F)c(C(N)=O)c(F)c1 (stereo partly drawn) [Compound 50, 4-[(2S)-2-(dimethylamino)-3-[3-(pyridin-3-yl)-3-[1-(trifluoromethyl)cyclopropyl]propanamido]propyl]-2,6-difluorobenzamide] | > 3000
14 | CN(C)[C@H](CNC(=O)C[C@H](c1ccoc1)C1(C(F)(F)F)CC1)Cc1ccc(C(N)=O)c(F)c1 [Compound 51, 4-((S)-2-(dimethylamino)-3-((R)-3-(furan-3-yl)-3-(1-(trifluoromethyl)cyclopropyl)propanamido)propyl)-2-fluorobenzamide] | < 300
15 | Cc1cc([C@@H](CC(=O)NC[C@H](Cc2ccc(C(N)=O)c(F)c2)N(C)C)C2(C(F)(F)F)CC2)cs1 [Compound 52, 4-((S)-2-(dimethylamino)-3-((S)-3-(5-methylthiophen-3-yl)-3-(1-(trifluoromethyl)cyclopropyl)propanamido)propyl)-2-fluorobenzamide] | < 300
16 | Cc1ccc([C@@H](CC(=O)NC[C@H](Cc2ccc(C(N)=O)c(F)c2)N(C)C)C2(C(F)(F)F)CC2)s1 [Compound 53, 4-((S)-2-(dimethylamino)-3-((S)-3-(5-methylthiophen-2-yl)-3-(1-(trifluoromethyl)cyclopropyl)propanamido)propyl)-2-fluorobenzamide] | < 300
17 | CN(C)[C@H](CNC(=O)C[C@H](c1ccsc1)C1(C(F)(F)F)CC1)Cc1ccc(C(N)=O)c(F)c1 [Compound 54, 4-((S)-2-(dimethylamino)-3-((S)-3-(thiophen-3-yl)-3-(1-(trifluoromethyl)cyclopropyl)propanamido)propyl)-2-fluorobenzamide] | > 3000
18 | CN(C)[C@H](CNC(=O)C[C@H](c1cncs1)C1(C(F)(F)F)CC1)Cc1ccc(C(N)=O)c(F)c1 [Compound 55, 4-((S)-2-(dimethylamino)-3-((S)-3-(thiazol-5-yl)-3-(1-(trifluoromethyl)cyclopropyl)propanamido)propyl)-2-fluorobenzamide] | < 300
19 | Cc1cnc([C@@H](CC(=O)NC[C@H](Cc2ccc(C(N)=O)c(F)c2)N(C)C)C2(C(F)(F)F)CC2)nc1 [Compound 57, 4-((S)-2-(dimethylamino)-3-((S)-3-(5-methylpyrimidin-2-yl)-3-(1-(trifluoromethyl)cyclopropyl)propanamido)propyl)-2-fluorobenzamide] | 300 to 3000
20 | Cc1ncc([C@H](CC(=O)NC[C@H](Cc2ccc(C(N)=O)c(F)c2)N(C)C)C2(C(F)(F)F)CC2)s1 [Compound 58, 4-((S)-2-(dimethylamino)-3-((R)-3-(2-methylthiazol-5-yl)-3-(1-(trifluoromethyl)cyclopropyl)propanamido)propyl)-2-fluorobenzamide] | > 3000
21 | Cc1ncc([C@@H](CC(=O)NC[C@H](Cc2ccc(C(N)=O)c(F)c2)N(C)C)C2(C(F)(F)F)CC2)s1 [Compound 59, 4-((S)-2-(dimethylamino)-3-((S)-3-(2-methylthiazol-5-yl)-3-(1-(trifluoromethyl)cyclopropyl)propanamido)propyl)-2-fluorobenzamide] | < 300
22 | CN(C)[C@H](CNC(=O)C[C@H](c1ccncc1F)C1(C(F)(F)F)CC1)Cc1ccc(C(N)=O)c(F)c1 [Compound 61, 4-((S)-2-(dimethylamino)-3-((R)-3-(3-fluoropyridin-4-yl)-3-(1-(trifluoromethyl)cyclopropyl)propanamido)propyl)-2-fluorobenzamide] | > 3000
23 | CN(C)[C@H](CNC(=O)C[C@H](CC1CC1)c1ccncc1)Cc1ccc(C(N)=O)c(F)c1 [Compound 62, 4-((S)-3-((S)-4-cyclopropyl-3-(pyridin-4-yl)butanamido)-2-(dimethylamino)propyl)-2-fluorobenzamide] | < 300

same assay, conditions: CHO Tag-lite human mOR stable cell line; forskolin 4 μM and DAMGO at EC90; read-out: mOR cAMP Antagonist Assay IC50

Row | Structure (SMILES) | IC50 [nM]
24 | CC(C)C[C@H](CC(=O)NC[C@H](Cc1ccc(C(N)=O)c(F)c1)N(C)C)c1cccnc1 [Compound 60, 4-((S)-2-(dimethylamino)-3-((R)-5-methyl-3-(pyridin-3-yl)hexanamido)propyl)-2-fluorobenzamide] | < 300
25 | CN(C)[C@H](CNC(=O)C[C@@H](c1cncc(F)c1)C(C)(C)C)Cc1ccc(C(N)=O)c(F)c1 [Compound 63, 4-((S)-2-(dimethylamino)-3-((R)-3-(5-fluoropyridin-3-yl)-4,4-dimethylpentanamido)propyl)-2-fluorobenzamide] | < 300

same assay, conditions: read-out: mOR cAMP Antagonist Assay IC50

Row | Structure (SMILES) | IC50 [nM]
26 | Cc1cnc([C@@H](CC(=O)NC[C@H](Cc2ccc(C(N)=O)c(F)c2)N(C)C)C2(C(F)(F)F)CC2)s1 [Compound 56, 4-((S)-2-(dimethylamino)-3-((S)-3-(5-methylthiazol-2-yl)-3-(1-(trifluoromethyl)cyclopropyl)propanamido)propyl)-2-fluorobenzamide] | 300 to 3000
